The nature of this data set: stability of the AlF-18 complexes by incubation in human serum. It is filed as in vitro ADME. The method, then: The reactions for labelling with [AlF-18]^2+ were carried out at various pH (between 4 and 6.5) and at various temperatures (25, 37 and 80°). The preparation of [AlF-18]^2+ and the subsequent labelling with the chelating agents covered by the present patent were carried out according to the procedure cited by Bormans and colleagues (Nature Prot. 2018, 13, 2330-2347). The labeled products were purified using Sep-Pak Alumina N Plus Light cartridges and eluted with a 0.9% NaCl solution. All of the products were analyzed by means of radio-TLC and radio-HPLC and the stability of the tracers was studied at 10, 30, 60, 120 and 240 minutes by means of incubation in […] different solutions: human serum, PBS, EDTA 5 mM and 0.9% NaCl solutions.
An additional advantage is the stability in human serum detected for the compounds of the present invention. An increased stability in human serum was measured for the chelating agent 2-AMPDA-HB, with 90% of AlF-18 still complexed after 120 minutes, whereas the complexed percentage was 55% for the chelating agent 2-AMPTA.

`O=C(O)CN(CC(=O)O)CC1CCCCN1CC(=O)O` (centres unmarked) [2-AMPTA]: the “AlF-18 still complexed in human serum” value (after 120 minutes) was determined as 55%. Besides, where the note is “after 240 minutes”, the “stability of the AlF-18 complexes in human serum” value is listed as 33%.

Values taken from patent US12378199B2, “Rigidified pentadentate chelating agents useful for the [Al18F]2+ labelling of biomolecules” (UNIVERSITÀ DEGLI STUDI DEL PIEMONTE ORIENTALE “A. AVOGADRO”, priority 2019, dated 2025).
